Reference: patent US20100197650A1, “COMPOSITIONS AND METHODS OF TREATMENT COMPRISING CEFTAROLINE” (FOREST LABORATORIES HOLDINGS LTD., priority 2008, published 2010)
≈ marks a conversion by molar mass, not a printed value. Where “and” joins values, the source holds several entries; their conditions need not be identical. Equal entries are not always repeated. Where two headings read alike, the source gives them in different places.

How the values were obtained:
[1] = system: Staphylococcus aureus; experiment: MIC, broth microdilution (Example 1); assay type: cell-based
Method: (§1) Stock solutions of all antibacterial agents were prepared at 80-fold (80×) the final target concentration in the appropriate solvent and the solution was allowed to stand for 60 minutes. All antibacterial agents were in solution under these conditions. The final drug concentrations in the FIC assay plates were set to bracket the MIC value of each agent for each test organism, unless the strain was totally resistant to the test agent.
(§2) The test organisms were originally received from clinical sources, or from the American Type Culture Collection. Upon receipt, the isolates were streaked onto the appropriate growth medium: Chocolate Agar for H. influenzae, Tryptic Soy Agar II (Becton Dickinson, Sparks, Md.) supplemented with 5% defibrinated sheep blood for streptococci, and unsupplemented Tryptic Soy Agar II for all other organisms. Colonies were harvested from these plates and a cell suspension was prepared in Tryptic Soy Broth (Becton Dickinson) containing cryoprotectant. Aliquots were then frozen at −80° C. On the day prior to assay, the frozen seeds of the organisms to be tested in that session were thawed and streaked for isolation onto the appropriate agar medium plates and incubated overnight at 35° C.
(§3) The test medium for H. influenzae was Haemophilus Test Medium. Streptococci were tested in Mueller Hinton II Broth (Becton Dickinson; Lot 6235472) supplemented with 2% lysed horse blood (Cleveland Scientific, Bath, Ohio; Lot H88621). All other organisms were tested in Mueller Hinton II Broth (Becton Dickinson, Lot 6235472). The broth was prepared at 1.05× normal weight/volume to offset the 5% volume of the drugs in the final test plates.
(§4) In order to select the proper test concentrations for each drug combination, minimal inhibitory concentration (MIC) values were first determined using the broth microdilution method previously described (Clinical and Laboratory Standards Institute. Methods for Dilution Antimicrobial Susceptibility Tests for Bacteria That Grow Aerobically; Approved Standard—Seventh Edition. Clinical and Laboratory Standards Institute document M7-A7 [ISBN 1-56238-587-9]. Clinical and Laboratory Standards Institute, 940 West Valley Road, Suite 1400, Wayne, Pa. 19087-1898 USA, 2006).
(§5) The wells of standard 96-well microdilution plates (Falcon 3918) were filled with 150 μL of 100% DMSO using the Multidrop 384. These plates were used to prepare the drug “mother plates” which provided the serial drug dilutions for the drug combination plates. The Biomek 2000 was used to transfer 150 μl of each stock solution (80×) from the wells in Column 1 of a deep well plate to the corresponding wells in Column 1 of the mother plate and to make seven 2-fold serial dilutions. Two mother plates, one for each drug, were combined to form a “checkerboard” pattern by transfer of equal volumes (using a multi-channel pipette) to the drug combination plate. Row H and Column 8 each contained serial dilutions of one of the agents alone for determination of the MIC.
(§6) Plates were stacked 3 high, covered with a lid on the top plate, placed in plastic bags, and incubated at 35° C. for approximately 20 hours. Following incubation, the microplates were removed from the incubator and viewed from the bottom using a ScienceWare plate viewer. Prepared reading sheets were marked for the MIC of drug 1 (row H), the MIC of drug 2 (column 8) and the wells of the growth-no growth interface.

[2] = system: Enterococcus faecalis; experiment: MIC, broth microdilution (Example 1); assay type: cell-based
Method: as §1, §2, §3, §4, §5, §6

[3] = system: HA-MRSA; experiment: Susceptibility testing MIC/MBC, broth microdilution (Example 3); assay type: cell-based, Staphylococcus aureus; conditions: for MIC50 / MIC90 / MBC / MIC: Staphylococcus aureus; for MIC50: read-out: MIC50; for MIC90: read-out: MIC90; for MBC: read-out: MBC; for MIC: read-out: MIC
Method: Two hundred clinical HA-MRSA isolates, harboring the SCCmecIV type, were evaluated for susceptibility testing. […] Four strains, including 1 hVISA and 1 VISA, characterized by population analysis profile and Macro Etest were selected for time-kill analysis.
Trypose soy agar (TSA; Difco, Detroit, Mich.) was used for colony counting.
Minimum inhibitory concentrations (MIC) and minimum bactericidal concentrations (MBC) were determined by broth microdilution for all antimicrobials, according to the Clinical and Laboratory Standards Institute (CLSI) guidelines (Clinical and Laboratory Standards Institute. 2006. Methods for Dilution Antimicrobial Susceptibility Tests for Bacteria That Grow Aerobically; Approved Standard. 7th ed. Wayne, Pa.: CLSI). MBC values were determined by plating of aliquots of 5 μL from clear wells onto TSA. All susceptibility testing were performed in duplicate.

[4] = system: Streptococcus pyogenes; experiment: MIC, broth microdilution (Example 1); assay type: cell-based
Method: as §1, §2, §3, §4, §5, §6

[5] = Staphylococcus aureus, ATCC29213, S. aureus 0100 (ATCC 29213), FIC control, read-out: MIC
[6] = Staphylococcus aureus, MRSA, S. aureus 0765 (MRSA), read-out: MIC
[7] = Staphylococcus aureus, MRSA, S. aureus 2053 (MRSA), read-out: MIC
[8] = Staphylococcus aureus, MSSA, S. aureus 0753 (MSSA), read-out: MIC
[9] = Staphylococcus aureus, MSSA, S. aureus 2063 (MSSA), read-out: MIC
[10] = Enterococcus faecalis, E. faecalis 0795 (VSE), read-out: MIC
[11] = Enterococcus faecalis, E. faecalis 0796 (VSE), read-out: MIC
[12] = Streptococcus pyogenes, S. pyogenes 0717, read-out: MIC
[13] = Streptococcus pyogenes, S. pyogenes 0722, read-out: MIC
[14] = MRSA / VISA, HA-MRSA isolate R2303 (VISA)
[15] = MRSA, HA-MRSA isolate R3875 (hVISA)

For `O=C(O)c1cn(C2CC2)c2cc(N3CCNCC3)c(F)cc2c1=O` [Ciprofloxacin], the MIC ([1]; S. aureus 0100 (ATCC 29213), FIC control) was 0.50 mg/L and 0.25 mg/L, the MIC [1, 5] was 0.25 to 0.5 mg/L and the MIC ([2]; E. faecalis 0101 (ATCC 29212), FIC control) was 1 mg/L and 0.5 mg/L. For the same molecule, the MIC ([2]; Enterococcus faecalis, ATCC29212, E. faecalis 0101 (ATCC 29212), FIC control, read-out: MIC) was 0.5 to 1 mg/L.

`O=C(O)[C@H]1/C(=C/CO)O[C@@H]2CC(=O)N21` [Clavulanate] gave an MIC [1, 5] of over 16 mg/L.

In the case of `CCCCCCCCCC(=O)N[C@@H](Cc1c[nH]c2ccccc12)C(=O)N[C@H](CC(N)=O)C(=O)N[C@@H](CC(=O)O)C(=O)N[C@@H]1C(=O)NCC(=O)N[C@@H](CCCN)C(=O)N[C@@H](CC(=O)O)C(=O)N[C@H](C)C(=O)N[C@@H](CC(=O)O)C(=O)NCC(=O)N[C@H](CO)C(=O)N[C@@H]([C@H](C)CC(=O)O)C(=O)N[C@@H](CC(=O)c2ccccc2N)C(=O)O[C@@H]1C` [Daptomycin], the “% of Isolates with MBC 0.25 μg/mL” value ([3]; 200 HA-MRSA isolates) is reported as 47.5%, the “% of Isolates with MBC 0.5 μg/mL” value ([3]; 200 HA-MRSA isolates) is reported as 35% and the “% of Isolates with MBC 1 μg/mL” value ([3]; 200 HA-MRSA isolates) is reported as 5%. For the same molecule, the “% of Isolates with MBC 2 μg/mL” value ([3]; 200 HA-MRSA isolates) was 2.5%, the “% of Isolates with MBC […]” value ([3]; 200 HA-MRSA isolates) was 9.5% and the “% of Isolates with MBC ≧4 μg/mL” value ([3]; 200 HA-MRSA isolates) was 0.5%. The “% of Isolates with MIC 0.25 μg/mL” value ([3]; 200 HA-MRSA isolates) was 58.5%, the “% of Isolates with MIC 0.5 μg/mL” value ([3]; 200 HA-MRSA isolates) was 20.5% and the “% of Isolates with MIC 1 μg/mL” value ([3]; 200 HA-MRSA isolates) was 1%. The “% of Isolates with MIC […]” value ([3]; 200 HA-MRSA isolates) was 19.5%, the “% of Isolates with MIC ≧4 μg/mL” value ([3]; 200 HA-MRSA isolates) was 0.5% and the “MBC range” value ([3]; 200 HA-MRSA isolates) was 0.125 to 4 mg/L. The “MIC range” value ([3]; 200 HA-MRSA isolates) was 0.125 to 4 mg/L, the MIC50 ([3]; MRSA, 200 HA-MRSA isolates) was 0.25 mg/L (≈ 0.154 µM) and the MIC90 ([3]; 200 HA-MRSA isolates) was 0.5 mg/L (≈ 0.309 µM). The MIC [1, 6] was 0.5 mg/L, the MIC [1, 7] was 0.5 mg/L and the MIC [1, 8] was 0.5 mg/L. It also gave an MIC [1, 9] of 1 mg/L, an MIC [2, 10] of 1 mg/L and an MIC [2, 11] of 2 mg/L. For the same molecule, the MIC ([4]; S. pyogenes 0717) was 0.06 mg/L, the MIC [4, 12] was 0.05 mg/L and the MIC [4, 13] was 0.06 mg/L.

With `CC(=O)NC[C@H]1CN(c2ccc(N3CCOCC3)c(F)c2)C(=O)O1` [Linezolid] the “% of Isolates with MBC 0.5 μg/mL” value ([3]; 200 HA-MRSA isolates) was 1.5%, the “% of Isolates with MBC 1 μg/mL” value ([3]; 200 HA-MRSA isolates) was 12% and the “% of Isolates with MBC 2 μg/mL” value ([3]; 200 HA-MRSA isolates) was 13.5%. The “% of Isolates with MBC ≧4 μg/mL” value ([3]; 200 HA-MRSA isolates) was 73%, the “% of Isolates with MIC 0.25 μg/mL” value ([3]; 200 HA-MRSA isolates) was 9.5% and the “% of Isolates with MIC 0.5 μg/mL” value ([3]; 200 HA-MRSA isolates) was 16%. The “% of Isolates with MIC 1 μg/mL” value ([3]; 200 HA-MRSA isolates) was 15.5%, the “% of Isolates with MIC 2 μg/mL” value ([3]; 200 HA-MRSA isolates) was 47.5% and the “% of Isolates with MIC ≧4 μg/mL” value ([3]; 200 HA-MRSA isolates) was 11.5%. The “MBC range” value ([3]; 200 HA-MRSA isolates) was 0.5 to 64 mg/L, the “MIC range” value ([3]; 200 HA-MRSA isolates) was 0.25 to 4 mg/L and the MIC50 ([3]; MRSA, 200 HA-MRSA isolates) was 2 mg/L (≈ 5.93 µM). For the same molecule, the MIC90 ([3]; 200 HA-MRSA isolates) was 4 mg/L (≈ 11.9 µM), the MIC [1, 6] was 4 mg/L and the MIC [1, 7] was 2 mg/L. For the same molecule, the MIC [1, 8] was 4 mg/L, the MIC [1, 9] was 4 mg/L and the MIC [2, 10] was 2 mg/L. It also gave an MIC [2, 11] of 4 mg/L, an MIC ([2]; Enterococcus faecalis, VRE, E. faecalis 0847 (VRE), read-out: MIC) of 2 mg/L and an MIC ([2]; Enterococcus faecalis, VRE, E. faecalis 0849 (VRE), read-out: MIC) of 2 mg/L. For the same molecule, the MIC [4, 12] was 1 mg/L and the MIC [4, 13] was 1 mg/L.

`NC[C@H]1O[C@H](O[C@H]2[C@H](O)[C@@H](O[C@H]3O[C@H](CO)[C@@H](O)[C@H](N)[C@H]3O)[C@H](N)C[C@@H]2N)[C@H](N)C[C@@H]1O` [Tobramycin] showed an MBC [3, 14] of 0.5 mg/L (≈ 1.07 µM), an MIC [3, 14] of 0.125 mg/L (≈ 0.267 µM) and an MBC ([3]; MRSA, HA-MRSA isolate R3804) of 1 mg/L (≈ 2.14 µM). For the same molecule, the MIC ([3]; MRSA, HA-MRSA isolate R3804) was 0.5 mg/L (≈ 1.07 µM), the MBC [3, 15] was 0.5 mg/L (≈ 1.07 µM) and the MIC [3, 15] was 0.5 mg/L (≈ 1.07 µM). It also gave an MBC ([3]; MRSA, HA-MRSA isolate R4039) of 1 mg/L (≈ 2.14 µM) and an MIC ([3]; MRSA, HA-MRSA isolate R4039) of 1 mg/L (≈ 2.14 µM).
